“Also recorded” adds a separate entry of the source.
Columns and labels:
[1] = system: superoxide production in aortic tissue of apoE knockout mice; assay: Lucigenin-enhanced chemiluminescence of aortic superoxide; assay type: in vivo, mouse
Description: Lucigenin-enhanced chemiluminescence. Total aortic superoxide was measured by lucigenin-enhanced chemiluminescence as described previously. Aortas were harvested flushed with Krebs-HEPES buffer, opened longitudinally and divided into halves. Vessels were gassed with 95% oxygen/5% carbon dioxide in warmed Krebs-HEPES buffer for 30 minutes before measurements of chemiluminescence in a luminometer (manufacturer, location) using 20 μmol/L lucigenin. One half of each vessel was incubated in L-NAME (1 mmol/L). After measuring baseline readings for 4 minutes, samples were equilibrated and dark adapted for 5 mins, and chemiluminescence was recorded for 10 minutes. Recordings were performed blinded to the samples identity. Results were expressed as counts per second per milligram of tissue dry weight.

[2] = system: superoxide production in aortic sections; assay: Dihydroethidium oxidative fluorescence microtopography; assay type: in vivo, mouse
Description: Oxidative fluorescent microtopography. Superoxide was detected in the layers of the vessel wall using fluorescent probe dihydroethidium as described previously. Fresh segments of upper descending thoracic aorta were frozen in OCT compound. […] Molecular Probes). Images were obtained on a confocal microscope (Bio-Rad MRC-1024 laser; filter settings: excitation filter 488 nm; emission filter 550 nm). 2-hydroxyethidium fluorescence was measured from high power (60× mag) images. Endothelium by quantifying fluorescence (intensity×area) on the luminal side of the internal elastic lamina, media between the internal and external elastic lamina, and adventitia outside the external elastic lamina. Quantification was performed using Image Pro Plus software (Media Cybernetics, Silver Springs, Md.). Medial Analysis was performed blind to the samples identity.

C57B/16 mice = assay: Magnetic resonance imaging after intraperitoneal apelin-12 injection; assay type: in vivo, mouse; details: post apelin-12 300 μg/kg intraperitoneal, one hour prior to scanning; n=9
Description: Magnetic resonance imaging. […] Platinum needle ECG leads were inserted subcutaneously. Respiration was monitored by means of a pneumatic pillow sensor positioned against the abdomen. Mouse body temperature was maintained during scanning at 37° C. by a flow of heated air thermostatically controlled by a rectal temperature probe. Magnetic resonance images were acquired on a 4.7T Oxford magnet controlled by a Varian Inova console (Varian, Palo Alto, Calif.) using a transmit-receive, quadrature, volume coil with an inner diameter of 3.5 cm. Image acquisition was gated to respiration and to the ECG R wave (SA Instruments, Stony Brook, N.Y.). Coronal and sagittal scout images led to the acquisition of multiple contiguous 1 mm thick, short axis slices orthogonal to the interventricular septum. […] Planimetry measurements of end diastolic and end systolic dimension were derived offline from short axis views of the left ventricle at the level of the papillary muscles using ImageJ software (National Institutes of Health, Bethesda, Md.). Ejection fraction was calculated as [[…]. Data Analysis. […] Exact p values are reported for all comparisons.

APJ [3] = target: T1, APJ (Homo sapiens, UniProt P35414); details: cited from earlier work
T1 sequence (P35414 1-380): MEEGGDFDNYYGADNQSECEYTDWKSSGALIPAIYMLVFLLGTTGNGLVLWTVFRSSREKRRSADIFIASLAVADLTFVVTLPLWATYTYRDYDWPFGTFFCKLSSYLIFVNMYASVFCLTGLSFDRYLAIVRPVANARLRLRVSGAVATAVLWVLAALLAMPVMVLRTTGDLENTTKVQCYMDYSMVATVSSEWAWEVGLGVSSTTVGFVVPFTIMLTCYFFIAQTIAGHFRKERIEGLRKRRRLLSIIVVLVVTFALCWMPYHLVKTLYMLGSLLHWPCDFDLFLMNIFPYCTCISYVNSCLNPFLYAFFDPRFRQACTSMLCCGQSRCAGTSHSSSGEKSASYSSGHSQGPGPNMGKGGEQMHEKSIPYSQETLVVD

ApoE-KO mice [4] = assay: Atherosclerotic lesion analysis in ApoE-KO mice; assay type: in vivo, mouse
Description: Animals. Mice were maintained in temperature-controlled (20° C. to 22° C.) environment with a 12-hour light-dark cycle. […] All mice were C57BL/6J ApoE-KO male mice (Jackson Laboratories, Bar Harbor, […].) between the ages of 8-12 weeks. […] Animal procedures were carried out in accordance with the Institutional Review Board Guidelines at Stanford University.
Tissue preparation, histology and lesion quantification. Mice were euthanized 28 days following implantation of osmotic mini-pumps. The thoracic cage was removed and the animal perfused with phosphate buffered saline solution (PBS) for 2 minutes. The entire aorta and vein graft were exposed and the periadventitial tissue and scar tissue dissected and removed. Subsequently mice were perfusion fixed in situ with 4% phosphate-buffered paraformaldehyde. In some animals aorta and lung were removed fresh for biochemical assays.
Atherosclerotic Lesion Analysis Atherosclerosis lesion area was determined as described previously. Briefly, the arterial tree was perfused with PBS (pH 7.3) and then perfusion fixed with phosphate-buffered paraformaldehyde (3%, pH 7.3). The heart and full length of the aorta-to-iliac bifurcation was exposed and dissected carefully from any surrounding tissues. Aortas were then opened along the ventral midline and dissected free of the animal and pinned out flat, intimal side up, onto black wax. Aortic images were captured with a digital camera (DMC1) mounted on a Leica MZ6 stereomicroscope and analyzed using Fovea Pro (Reindeer Graphics, Asheville, N.C.). Percent lesion area was calculated as total lesion area divided by total surface area.

ApoE-KO mice [5] = assay: AngII induced abdominal aortic aneurysm formation model; assay type: in vivo, mouse
Description: (§1) Animals. Mice were maintained in temperature-controlled (20° C. to 22° C.) environment with a 12-hour light-dark cycle. Sterile water and standard chow diet were available ad libitum. All mice were C57BL/6J ApoE-KO male mice (Jackson Laboratories, Bar Harbor, […].) between the ages of 8-12 weeks. […] Animal procedures were carried out in accordance with the Institutional Review Board Guidelines at Stanford University.
Abdominal aortic aneurysm formation, sudden death and vein graft procedure. […] Abdominal aortic aneurysm was defined as ≧50% enlargement of the maximal abdominal aorta diameter. Mice that were found dead without any preceding signs of suffering were defined as sudden death.

ApoE-KO mice [6] = assay: Vein graft neointimal hyperplasia model; assay type: in vivo, mouse; details: AngII infusion
Description: as §1

[7] = system: NFκB, NFAT, AP-1 and SRE reporter constructs; assay: Luciferase reporter assays of AngII nuclear signaling in HEK-293 cells; assay type: cell-based; details: HEK-293 cells co-transfected with AT1; AngII stimulation
Text: cDNA Constructs APJ expression construct was purchased from cDNA.org. AT1R construct was obtained from Dr. Marc Caron. AT1R transcript was inserted into a pEGFP-N1 vector (Clonetech). The NF-kB and SRE luciferase reporter constructs were obtained from BD Biosciences.
(§2) Cells were immediately lysed.

AT1R = target: T2, AT1R (Rattus norvegicus, UniProt P25095); assay: Competitive ligand binding with FAM-labeled AngII in HEK-293 cells; details: unlabeled ligand 100 nM; HEK-293 cells transfected with AT1R
T2 construct: expressed in transfected cells; host or cells: HEK-293
T2 sequence (P25095 1-359): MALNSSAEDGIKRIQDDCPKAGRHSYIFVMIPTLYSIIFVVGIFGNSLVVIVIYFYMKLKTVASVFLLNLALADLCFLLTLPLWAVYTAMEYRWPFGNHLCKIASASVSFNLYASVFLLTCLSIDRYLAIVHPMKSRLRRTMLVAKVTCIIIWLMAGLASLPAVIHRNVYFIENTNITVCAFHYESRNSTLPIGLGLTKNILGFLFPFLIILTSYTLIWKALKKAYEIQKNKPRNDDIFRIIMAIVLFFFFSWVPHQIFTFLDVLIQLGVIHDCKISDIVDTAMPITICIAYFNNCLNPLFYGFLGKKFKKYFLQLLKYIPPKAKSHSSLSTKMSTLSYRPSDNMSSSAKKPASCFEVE

[8] = system: AT1R and APJ heterodimerization; assay: AT1R-APJ receptor heterodimerization by immunoprecipitation; assay type: cell-based; details: AngII, 1 and 6 hours of treatment; co-transfected cells
Description: as §2
Immunoprecipitation and Western Blotting Immunoprecipitation was performed as previously described (REF). In brief, cells were lysed using 10× Cell Lysis Buffer (Cell Signaling Technologies CITY). Lysates were precleared with protein G and immunoprecipitation was performed with the respective antibodies at concentration of 1 mg/mL for 24 hrs at 4C. Protein G agarose was added and incubated for additional 2 hours. Western blotting on SDS-PAGE gels were performed as previously described, and the bands were visualized using the enhanced chemiluminescence system (Amersham Biosciences).

APJ [9] = target: T1, APJ; details: cited from earlier work; remark: listed apart in the source

Compound: COC(=O)[C@@H](N)CCCNC(=N)N[N+](=O)[O-] [L-NAME]
- increase in total superoxide production on incubation with L-NAME ([1]; aorta from apelin treated mice, L-NAME 1 mmol/L): 2 fold
- total superoxide levels on incubation with L-NAME ([1]; aorta from saline, AngII or AngII+apelin treated animals, L-NAME 1 mmol/L): not significantly different

Compound: COc1cc(C(C)=O)ccc1O [apocynain]
- total medial fluorescence after incubation with NADPH oxidase inhibitor ([2]; aortic sections from apelin treated mice): did not find this effect
- total medial fluorescence after incubation with NADPH oxidase inhibitor ([2]; aortic sections from saline, AngII and apelin+AngII treated mice, 50 μmol/l): dramatically reduced; also recorded: blocked

Compound: H-Arg-Pro-Arg-Leu-Ser-His-Lys-Gly-Pro-Met-Pro-Phe-OH [apelin-12]
- Ejection fraction (C57B/16 mice): upward trend
- heart rate (inverse of R-R interval of electrocardiogram) (C57B/16 mice): significant increase
- left ventricular end diastolic area (C57B/16 mice): significant reduction; also recorded: significantly decreased
- activation of APJ (APJ [3]): activate APJ

Compound: H-Leu-Val-Gln-Pro-Arg-Gly-Ser-Arg-Asn-Gly-Pro-Gly-Pro-Trp-Gln-Gly-Gly-Arg Arg-Lys-Phe-Arg-Arg-Gln-Arg-Pro-Arg-Leu-Ser-His-Lys-Gly-Pro-Met-Pro-Phe-OH (H-LVQPRGSRNGPGPWQGGRRKFRRQRPRLSHKGPMPF-OH; listed as Homo sapiens) [apelin-36]
- activation of APJ (APJ [3]): activate APJ

Compound: angiotensin II (DRVYIHPF) [AngII, peptide infused to promote vascular disease and heart failure; AT1R ligand, reference compound]
- increase of descending aorta atherosclerosis vs saline treated controls (ApoE-KO mice [4]; AngII 1.4 mg/kg/day, 4 week minipump infusion): 82%
- progression of atherosclerosis in aortic root (FIG. 17) (ApoE-KO mice [4]; osmotic minipump during high fat diet exposure): do not alter
- animals with aneurysm formation (ApoE-KO mice [5]; AngII for four weeks): 11/12
- incidence of AAA formation within 4 weeks (ApoE-KO mice [5]; single agent infusion): 92%
- increase of vein graft wall area vs saline treated controls (ApoE-KO mice [6]): 33%
- increase in total chemiluminescence (superoxide) ([1]; AngII infusion): 10 fold
- reporter transcription (NFκB, NFAT, AP-1, SRE) [7]: significant increase
- competition for binding of FAM-AngII (10 nM) to AT1R (AT1R): competes
- AT1R-APJ receptor heterodimerization [8]: significantly enhanced
- binding to APJ (APJ [9]): does not bind

Compound: apelin-17
- activation of APJ (APJ [3]): activate APJ
